Experiment [1] addresses T1, Acyl-CoA dehydrogenase family member 10 (Homo sapiens, UniProt Q6JQN1).
T1 sequence (Q6JQN1 whole entry): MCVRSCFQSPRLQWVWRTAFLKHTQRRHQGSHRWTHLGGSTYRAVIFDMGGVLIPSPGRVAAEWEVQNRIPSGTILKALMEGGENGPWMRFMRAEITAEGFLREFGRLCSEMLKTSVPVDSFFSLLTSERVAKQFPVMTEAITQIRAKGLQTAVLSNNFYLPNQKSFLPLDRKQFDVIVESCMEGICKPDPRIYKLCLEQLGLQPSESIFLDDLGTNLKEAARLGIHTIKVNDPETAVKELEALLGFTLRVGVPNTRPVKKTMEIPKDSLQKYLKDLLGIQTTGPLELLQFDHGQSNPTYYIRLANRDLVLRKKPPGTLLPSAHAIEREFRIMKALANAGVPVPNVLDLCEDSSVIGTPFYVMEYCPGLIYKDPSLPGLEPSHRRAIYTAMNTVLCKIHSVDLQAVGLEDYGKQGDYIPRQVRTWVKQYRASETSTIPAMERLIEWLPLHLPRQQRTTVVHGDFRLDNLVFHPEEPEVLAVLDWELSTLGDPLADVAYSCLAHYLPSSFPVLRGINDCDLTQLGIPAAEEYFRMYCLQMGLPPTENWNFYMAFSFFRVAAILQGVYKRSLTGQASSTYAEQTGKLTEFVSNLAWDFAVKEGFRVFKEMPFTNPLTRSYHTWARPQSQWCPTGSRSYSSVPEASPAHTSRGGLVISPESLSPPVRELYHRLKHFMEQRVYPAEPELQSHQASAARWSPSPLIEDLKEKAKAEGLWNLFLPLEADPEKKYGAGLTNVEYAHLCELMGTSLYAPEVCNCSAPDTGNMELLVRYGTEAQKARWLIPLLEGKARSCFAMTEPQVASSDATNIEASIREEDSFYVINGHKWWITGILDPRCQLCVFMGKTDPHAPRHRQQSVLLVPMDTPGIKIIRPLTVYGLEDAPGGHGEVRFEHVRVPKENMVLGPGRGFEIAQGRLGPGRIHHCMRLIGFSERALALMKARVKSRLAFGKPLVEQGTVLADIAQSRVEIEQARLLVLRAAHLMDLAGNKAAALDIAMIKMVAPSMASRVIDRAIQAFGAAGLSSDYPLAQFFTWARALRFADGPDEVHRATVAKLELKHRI

For experiment [2], the target named is Calcium/calmodulin-dependent protein kinase type II subunit delta (Homo sapiens, UniProt Q13557).
The target in experiment [3] is Cyclin-dependent kinase 4 (Homo sapiens, UniProt P11802).
Experiment [4] concerns the target Epithelial discoidin domain-containing receptor 1 (Homo sapiens, UniProt Q08345).
The target in experiment [5] is T2, Phenylalanine--tRNA ligase beta subunit (Homo sapiens, UniProt Q9NSD9).
T2 sequence (Q9NSD9 whole entry): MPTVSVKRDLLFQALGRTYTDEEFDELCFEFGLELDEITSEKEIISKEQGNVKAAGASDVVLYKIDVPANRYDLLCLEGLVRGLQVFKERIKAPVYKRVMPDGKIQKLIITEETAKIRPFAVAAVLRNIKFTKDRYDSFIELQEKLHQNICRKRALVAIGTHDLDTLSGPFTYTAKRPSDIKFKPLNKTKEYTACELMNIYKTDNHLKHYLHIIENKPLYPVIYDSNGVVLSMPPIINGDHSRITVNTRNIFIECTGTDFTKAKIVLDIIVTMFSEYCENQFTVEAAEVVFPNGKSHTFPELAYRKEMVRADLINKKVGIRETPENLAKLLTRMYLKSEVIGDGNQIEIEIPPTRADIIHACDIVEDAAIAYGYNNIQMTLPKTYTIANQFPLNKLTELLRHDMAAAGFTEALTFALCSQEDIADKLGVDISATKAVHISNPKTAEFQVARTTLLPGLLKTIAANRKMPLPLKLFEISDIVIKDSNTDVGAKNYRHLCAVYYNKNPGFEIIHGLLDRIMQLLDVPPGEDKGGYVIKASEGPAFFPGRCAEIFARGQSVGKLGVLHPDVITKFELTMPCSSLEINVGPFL

Experiment [6] concerns the target T3, Mitogen-activated protein kinase kinase kinase kinase 3 (Homo sapiens, UniProt Q8IVH8).
T3 sequence (Q8IVH8 whole entry): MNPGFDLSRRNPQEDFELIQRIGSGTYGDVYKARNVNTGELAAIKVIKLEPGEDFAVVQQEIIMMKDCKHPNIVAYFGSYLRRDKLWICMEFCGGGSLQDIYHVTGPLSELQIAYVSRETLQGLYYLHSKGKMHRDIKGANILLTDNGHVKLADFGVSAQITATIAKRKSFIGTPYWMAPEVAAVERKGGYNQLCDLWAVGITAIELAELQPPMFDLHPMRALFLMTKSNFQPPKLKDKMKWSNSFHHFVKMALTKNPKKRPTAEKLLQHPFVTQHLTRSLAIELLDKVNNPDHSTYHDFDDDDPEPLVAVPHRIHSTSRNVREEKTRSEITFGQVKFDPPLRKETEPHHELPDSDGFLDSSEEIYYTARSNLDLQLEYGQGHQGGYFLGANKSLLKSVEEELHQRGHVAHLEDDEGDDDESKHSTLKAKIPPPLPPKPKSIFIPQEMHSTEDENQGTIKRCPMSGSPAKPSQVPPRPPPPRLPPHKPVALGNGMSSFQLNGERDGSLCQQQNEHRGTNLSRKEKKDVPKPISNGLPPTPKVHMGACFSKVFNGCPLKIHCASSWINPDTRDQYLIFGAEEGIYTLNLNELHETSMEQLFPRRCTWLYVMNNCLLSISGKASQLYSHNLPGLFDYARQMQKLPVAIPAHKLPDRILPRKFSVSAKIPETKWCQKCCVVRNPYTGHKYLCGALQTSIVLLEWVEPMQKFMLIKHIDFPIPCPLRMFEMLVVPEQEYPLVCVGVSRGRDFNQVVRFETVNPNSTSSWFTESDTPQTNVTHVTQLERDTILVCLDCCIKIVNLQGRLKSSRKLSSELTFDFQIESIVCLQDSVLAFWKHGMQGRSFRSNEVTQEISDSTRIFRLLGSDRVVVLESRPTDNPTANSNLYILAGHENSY

For another experiment, the target named is Activated CDC42 kinase 1 (Homo sapiens, UniProt Q07912).
The target in a further experiment is Wee1-like protein kinase (Homo sapiens, UniProt P30291).
Experiment [7] deals with Tyrosine-protein kinase Yes (Homo sapiens, UniProt P07947).

The source made the active and inactive calls. Cut-off read from the data, not from the text of the source, for most assays here: actives have a measured Kd and inactives only a lower limit.
Note: in the data inactive means no Kd found up to 30 µM.

Epithelial discoidin domain-containing receptor 1, sequence (Q08345 whole entry, the tested form may be a part): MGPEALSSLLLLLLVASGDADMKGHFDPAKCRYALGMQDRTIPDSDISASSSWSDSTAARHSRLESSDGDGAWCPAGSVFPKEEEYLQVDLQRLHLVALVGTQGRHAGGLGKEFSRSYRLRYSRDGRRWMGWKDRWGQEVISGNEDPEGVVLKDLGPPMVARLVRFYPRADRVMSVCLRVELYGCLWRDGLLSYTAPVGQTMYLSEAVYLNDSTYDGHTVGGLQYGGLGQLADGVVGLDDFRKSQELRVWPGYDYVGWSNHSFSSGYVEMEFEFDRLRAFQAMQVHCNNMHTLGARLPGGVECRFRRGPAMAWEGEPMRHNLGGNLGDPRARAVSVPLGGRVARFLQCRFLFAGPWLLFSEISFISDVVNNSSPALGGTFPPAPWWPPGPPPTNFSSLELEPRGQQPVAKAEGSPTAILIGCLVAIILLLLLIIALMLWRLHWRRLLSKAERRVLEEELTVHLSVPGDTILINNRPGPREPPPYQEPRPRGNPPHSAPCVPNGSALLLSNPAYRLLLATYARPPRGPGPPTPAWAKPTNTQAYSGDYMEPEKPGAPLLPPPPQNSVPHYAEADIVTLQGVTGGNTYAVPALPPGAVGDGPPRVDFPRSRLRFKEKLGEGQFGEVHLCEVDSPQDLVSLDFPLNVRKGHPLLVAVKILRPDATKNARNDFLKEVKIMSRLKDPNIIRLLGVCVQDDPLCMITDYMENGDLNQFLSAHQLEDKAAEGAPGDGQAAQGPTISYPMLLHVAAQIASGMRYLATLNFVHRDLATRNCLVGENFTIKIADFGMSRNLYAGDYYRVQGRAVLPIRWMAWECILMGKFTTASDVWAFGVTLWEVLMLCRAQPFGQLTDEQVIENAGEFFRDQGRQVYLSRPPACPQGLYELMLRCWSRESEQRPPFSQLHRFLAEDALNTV
Tyrosine-protein kinase Yes, sequence (P07947 whole entry): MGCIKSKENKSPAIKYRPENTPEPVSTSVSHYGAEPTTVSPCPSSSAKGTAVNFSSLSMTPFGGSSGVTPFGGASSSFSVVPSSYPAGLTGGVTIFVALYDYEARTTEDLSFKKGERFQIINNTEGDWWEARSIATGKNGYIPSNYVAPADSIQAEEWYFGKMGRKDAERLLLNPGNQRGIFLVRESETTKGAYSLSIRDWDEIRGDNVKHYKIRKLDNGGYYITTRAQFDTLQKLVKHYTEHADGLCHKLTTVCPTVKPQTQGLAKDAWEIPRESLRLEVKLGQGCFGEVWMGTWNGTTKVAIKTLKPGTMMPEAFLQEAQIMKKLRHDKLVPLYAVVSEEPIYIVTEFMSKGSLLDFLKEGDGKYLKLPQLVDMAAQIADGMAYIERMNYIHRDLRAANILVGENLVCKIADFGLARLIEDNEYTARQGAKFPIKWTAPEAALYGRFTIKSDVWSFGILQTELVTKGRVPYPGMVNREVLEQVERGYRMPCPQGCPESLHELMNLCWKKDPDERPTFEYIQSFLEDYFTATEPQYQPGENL
Cyclin-dependent kinase 4, sequence (P11802 whole entry, the tested form may be a part): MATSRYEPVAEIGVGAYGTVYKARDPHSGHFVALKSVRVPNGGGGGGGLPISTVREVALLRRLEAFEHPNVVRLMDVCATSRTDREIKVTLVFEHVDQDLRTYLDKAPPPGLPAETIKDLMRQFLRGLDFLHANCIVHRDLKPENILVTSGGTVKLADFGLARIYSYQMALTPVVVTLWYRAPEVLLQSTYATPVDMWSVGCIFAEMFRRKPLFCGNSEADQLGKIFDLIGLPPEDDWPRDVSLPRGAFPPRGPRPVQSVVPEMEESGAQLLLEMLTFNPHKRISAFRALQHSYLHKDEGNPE
Activated CDC42 kinase 1, sequence (Q07912 whole entry): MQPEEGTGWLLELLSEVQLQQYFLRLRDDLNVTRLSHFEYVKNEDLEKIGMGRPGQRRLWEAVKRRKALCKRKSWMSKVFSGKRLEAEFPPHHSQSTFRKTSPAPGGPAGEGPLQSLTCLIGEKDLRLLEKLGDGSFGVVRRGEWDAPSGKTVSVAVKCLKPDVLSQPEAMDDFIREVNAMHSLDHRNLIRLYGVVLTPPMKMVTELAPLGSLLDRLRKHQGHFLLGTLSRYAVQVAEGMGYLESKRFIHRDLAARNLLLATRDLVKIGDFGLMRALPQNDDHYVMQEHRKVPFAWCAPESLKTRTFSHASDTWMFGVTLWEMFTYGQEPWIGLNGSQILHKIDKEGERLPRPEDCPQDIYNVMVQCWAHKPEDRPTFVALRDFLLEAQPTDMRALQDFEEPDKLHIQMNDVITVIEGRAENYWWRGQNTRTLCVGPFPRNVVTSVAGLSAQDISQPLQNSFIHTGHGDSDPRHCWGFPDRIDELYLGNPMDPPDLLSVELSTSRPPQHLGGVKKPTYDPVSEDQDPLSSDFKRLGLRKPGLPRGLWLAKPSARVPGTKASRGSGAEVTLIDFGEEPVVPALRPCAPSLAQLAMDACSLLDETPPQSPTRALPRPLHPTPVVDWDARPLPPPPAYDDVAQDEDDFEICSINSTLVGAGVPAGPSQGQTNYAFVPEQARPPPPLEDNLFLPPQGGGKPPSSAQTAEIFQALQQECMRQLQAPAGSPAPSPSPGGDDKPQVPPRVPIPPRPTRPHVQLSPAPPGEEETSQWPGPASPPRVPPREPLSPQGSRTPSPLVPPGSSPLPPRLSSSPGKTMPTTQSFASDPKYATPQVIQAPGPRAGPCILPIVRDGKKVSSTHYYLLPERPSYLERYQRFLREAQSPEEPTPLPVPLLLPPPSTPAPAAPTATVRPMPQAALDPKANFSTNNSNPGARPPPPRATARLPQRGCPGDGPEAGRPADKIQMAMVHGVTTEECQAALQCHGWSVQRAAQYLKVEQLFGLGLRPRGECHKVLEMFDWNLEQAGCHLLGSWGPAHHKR
Wee1-like protein kinase, sequence (P30291 whole entry): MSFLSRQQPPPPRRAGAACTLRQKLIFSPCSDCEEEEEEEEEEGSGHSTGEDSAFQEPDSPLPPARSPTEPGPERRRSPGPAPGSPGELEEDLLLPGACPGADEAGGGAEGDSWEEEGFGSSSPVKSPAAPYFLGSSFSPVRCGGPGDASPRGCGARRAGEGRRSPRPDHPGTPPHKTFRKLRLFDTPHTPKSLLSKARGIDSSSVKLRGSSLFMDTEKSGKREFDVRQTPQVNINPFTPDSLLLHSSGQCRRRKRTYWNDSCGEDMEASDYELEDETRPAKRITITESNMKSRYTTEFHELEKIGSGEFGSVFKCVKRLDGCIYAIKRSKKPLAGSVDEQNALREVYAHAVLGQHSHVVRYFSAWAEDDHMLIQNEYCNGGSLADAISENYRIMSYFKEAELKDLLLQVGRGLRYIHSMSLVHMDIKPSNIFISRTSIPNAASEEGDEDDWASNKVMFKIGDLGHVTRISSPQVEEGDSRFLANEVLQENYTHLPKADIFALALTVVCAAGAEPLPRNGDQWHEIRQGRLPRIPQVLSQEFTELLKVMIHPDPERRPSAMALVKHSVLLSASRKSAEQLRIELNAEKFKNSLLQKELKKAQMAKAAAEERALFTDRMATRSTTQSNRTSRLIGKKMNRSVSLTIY
Calcium/calmodulin-dependent protein kinase type II subunit delta, sequence (Q13557 whole entry): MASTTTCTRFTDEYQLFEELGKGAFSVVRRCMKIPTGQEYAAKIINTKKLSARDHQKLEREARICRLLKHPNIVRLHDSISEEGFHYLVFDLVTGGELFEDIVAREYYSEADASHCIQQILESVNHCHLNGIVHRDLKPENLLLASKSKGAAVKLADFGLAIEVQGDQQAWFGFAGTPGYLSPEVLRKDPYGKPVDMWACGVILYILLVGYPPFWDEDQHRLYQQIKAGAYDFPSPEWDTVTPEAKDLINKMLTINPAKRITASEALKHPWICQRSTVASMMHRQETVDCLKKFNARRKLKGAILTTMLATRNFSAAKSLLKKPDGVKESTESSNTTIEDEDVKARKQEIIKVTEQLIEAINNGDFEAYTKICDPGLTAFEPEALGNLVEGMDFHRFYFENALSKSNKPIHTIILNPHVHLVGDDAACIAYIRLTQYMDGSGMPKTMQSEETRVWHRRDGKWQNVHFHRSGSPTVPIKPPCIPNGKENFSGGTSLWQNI

Regarding `Cc1c(Cn2c(C)nc3c(C(=O)O)cc(N4CCOCC4)cc32)cccc1C(F)(F)F` [GSK-2636771], the Kd in [1], in experiment [2], in experiment [3], in experiment [4], in [5] and in experiment [6] was > 30 µM (inactive) throughout. Also, the Kd (at Activated CDC42 kinase 1; on Wee1-like protein kinase; in experiment [7]) was > 30 µM (inactive) each time.
In the case of `Cn1c(=O)c(F)c(Nc2ccc(I)cc2F)c2c(=O)n(C[C@@H](O)CO)cnc21` [TAK-733], the Kd in experiment [1], in experiment [2], in [3], in experiment [4], in [5] and in experiment [6] was > 30 µM (inactive) throughout. Further, the Kd (on Activated CDC42 kinase 1; at Wee1-like protein kinase; in experiment [7]) was > 30 µM (inactive) each time.
`COc1cccc(Nc2ncnn3ccc(CN4CC[C@@H](N)[C@H](O)C4)c23)c1` [BMS-690514]: the Kd (commonly the constant that tells how readily two partners part at equilibrium) is > 30 µM (inactive) in experiment [1]; 0.703 µM (active) in experiment [2]; > 30 µM (inactive) in experiment [3]; > 30 µM (inactive) in experiment [4]; > 30 µM (inactive) in [5]; > 30 µM (inactive) in [6]. Besides, the Kd at Activated CDC42 kinase 1 was 0.208 µM (active); at Wee1-like protein kinase, > 30 µM (inactive); in experiment [7], 1.03 µM (active).
As for `S=C(NCc1ccc2c(c1)OCO2)N1CCN(c2ncnc3c2oc2ccccc23)CC1` [AMUVATINIB], the Kd in [1], in experiment [2], in [3], in experiment [4], in [5] and in experiment [6] was > 30 µM (inactive) throughout. Also, the Kd (at Activated CDC42 kinase 1; at Wee1-like protein kinase; in experiment [7]) was > 30 µM (inactive) each time.
In the case of `C=CC(=O)Nc1cc(Nc2nccc(-c3cn(C)c4ccccc34)n2)c(OC)cc1N(C)CCN(C)C` [OSIMERTINIB], the Kd in experiment [1], in experiment [2], in experiment [3], in experiment [4], in experiment [5] and in [6] was > 30 µM (inactive) in each case. Besides, the Kd (on Activated CDC42 kinase 1; on Wee1-like protein kinase; in experiment [7]) was > 30 µM (inactive) in each case.
As for `Cn1cc(-c2[nH]c3cc(NC(=O)[C@H](N)C4CCCCC4)cc4c3c2C=NNC4=O)cn1`, the Kd in experiment [1] was > 30 µM (inactive); in experiment [2], > 30 µM (inactive); in experiment [3], > 30 µM (inactive); in experiment [4], > 30 µM (inactive); in experiment [5] it was > 30 µM (inactive); in experiment [6], 1.54 µM (active). Also, the values for the Kd (on Activated CDC42 kinase 1; at Wee1-like protein kinase; in experiment [7]) were > 30 µM (inactive), 4.86 µM (active) and 0.623 µM (active), respectively.
`COCCN1CCN(Cc2ccc(-c3n[nH]c4c3C(=O)c3c(NC(=O)NN5CCOCC5)cccc3-4)cc2)CC1` [RGB-286638]: the Kd in [1], in experiment [2], in [3], in experiment [4], in [5] and in experiment [6] was > 30 µM (inactive) in each case. For the same compound, the Kd (at Activated CDC42 kinase 1; on Wee1-like protein kinase; in experiment [7]) was > 30 µM (inactive) each time.
Take `C=CCN(/C=C1/C(=O)O[C@H](COC)[C@@]2(C)C1=C(O)C(=O)C1=C2[C@H](OC(C)=O)C[C@]2(C)C(=O)CC[C@@H]12)CC=C` [SONOLISIB]: the Kd in experiment [1], in experiment [2], in [3], in [4], in experiment [5] and in experiment [6] was > 30 µM (inactive) throughout. Besides, the Kd (at Activated CDC42 kinase 1; on Wee1-like protein kinase; in [7]) was > 30 µM (inactive) each time.
With `O=C(NC[C@H](O)CO)c1ccncc1Nc1ccc(I)cc1F` [PIMASERTIB], the Kd in experiment [1], in experiment [2], in [3], in experiment [4], in experiment [5] and in experiment [6] was > 30 µM (inactive) throughout. Besides, the Kd (on Activated CDC42 kinase 1; at Wee1-like protein kinase; in [7]) was > 30 µM (inactive) in each case.
As for `CCc1cc2c(cc1N1CCC(N3CCOCC3)CC1)C(C)(C)c1[nH]c3cc(C#N)ccc3c1C2=O` [ALECTINIB], the Kd in [1], in experiment [2], in [3], in experiment [4], in experiment [5] and in [6] was > 30 µM (inactive) in each case. Further, the Kd (on Activated CDC42 kinase 1; at Wee1-like protein kinase; in experiment [7]) was > 30 µM (inactive) throughout.
Turning to `Cc1c(NC(=O)OC[C@@H]2COCCN2)cn2ncnc(Nc3ccc4c(cnn4Cc4cccc(F)c4)c3)c12` [AC-480], the Kd in [1], in [2], in experiment [3], in [4], in [5] and in [6] was > 30 µM (inactive) throughout. Also, the Kd (at Activated CDC42 kinase 1; at Wee1-like protein kinase; in experiment [7]) was > 30 µM (inactive) each time.

The values are drawn from ChEMBL document CHEMBL3991601, “The target landscape of clinical kinase drugs” (Science, 2017).
